# Laboratory results published in the supplement of paper PMC10307832.
# Columns and labels:
# Assay in all cases: relative viability (nuclei count vs DMSO), 5 days (fraction); higher = more cells survive
# A549 = test system: A549
# Method in brief: (§1)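 After 5 days of treatment, lung cancer cells in 1536-well plates were fixed and stained in a single step (final 0.05% Triton X-100, 1% formaldehyde, 1 ug/ml Hoechst) and their nuclei counted on 4× images. Treatment had been applied by pin tool the day after seeding as one drug alone or as a fixed anchor-drug dose with five library-drug doses (not always all listed) in √10 steps. Relative viability is the nuclei count of treated wells divided by that of vehicle wells, and values are medians of duplicate plates.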
# Calu-6 = test system: Calu-6
# Method in brief: as §1
# EBC-1 = test system: EBC-1
# Method in brief: as §1
# IA-LM = test system: IA-LM
# Method in brief: as §1
# NCI-H1299 = test system: NCI-H1299
# Method in brief: as §1
# NCI-H1623 = test system: NCI-H1623
# Method in brief: as §1
# NCI-H1703 = test system: NCI-H1703
# Method in brief: as §1
# UMC-11 = test system: UMC-11
# Method in brief: as §1
compound,measurement,setting,value
C[C@@H]1CN(CC(=O)Nc2ccc3c(c2)Cc2cccc(-c4cc(=O)cc(N5CCOCC5)o4)c2S3)C[C@H](C)O1 + COc1cc2c(Oc3ccc(NC(=O)C4(C(=O)Nc5ccc(F)cc5)CC4)cc3F)ccnc2cc1OCCCN1CCOCC1 [Foretinib] (partner 0.25 µM),relative viability,A549; first compound 0.04 µM,0.818
same,relative viability,A549; first compound 0.1265 µM,1.01
same,relative viability,A549; first compound 0.4 µM,0.895
same,relative viability,A549; first compound 4 µM,0.823
same,relative viability,Calu-6; first compound 0.04 µM,0.859
same,relative viability,Calu-6; first compound 0.1265 µM,0.841
same,relative viability,Calu-6; first compound 0.4 µM,0.896
same,relative viability,Calu-6; first compound 4 µM,0.639
same,relative viability,EBC-1; first compound 0.04 µM,0.119
same,relative viability,EBC-1; first compound 0.1265 µM,0.113
same,relative viability,EBC-1; first compound 0.4 µM,0.102
same,relative viability,EBC-1; first compound 4 µM,0.129
same,relative viability,IA-LM; first compound 0.04 µM,1.19
same,relative viability,IA-LM; first compound 0.1265 µM,1.37
same,relative viability,IA-LM; first compound 0.4 µM,1.27
same,relative viability,IA-LM; first compound 4 µM,0.56
same,relative viability,NCI-H1299; first compound 0.04 µM,1.11
same,relative viability,NCI-H1299; first compound 0.1265 µM,1.1
same,relative viability,NCI-H1299; first compound 0.4 µM,1.06
same,relative viability,NCI-H1299; first compound 4 µM,0.995
same,relative viability,NCI-H1623; first compound 0.04 µM,0.771
same,relative viability,NCI-H1623; first compound 0.1265 µM,0.837
same,relative viability,NCI-H1623; first compound 0.4 µM,0.88
same,relative viability,NCI-H1623; first compound 4 µM,0.786
same,relative viability,NCI-H1703; first compound 0.04 µM,0.367
same,relative viability,NCI-H1703; first compound 0.1265 µM,0.299
same,relative viability,NCI-H1703; first compound 0.4 µM,0.36
same,relative viability,NCI-H1703; first compound 4 µM,0.295
same,relative viability,UMC-11; first compound 0.04 µM,1.1
same,relative viability,UMC-11; first compound 0.1265 µM,0.995
same,relative viability,UMC-11; first compound 0.4 µM,1.1
same,relative viability,UMC-11; first compound 4 µM,0.746
CC(C)Oc1cc(Nc2nc(N[C@@H](C)c3ccc(F)cn3)ncc2Cl)n[nH]1 [AZ23] + COc1cc2c(Oc3ccc(NC(=O)C4(C(=O)Nc5ccc(F)cc5)CC4)cc3F)ccnc2cc1OCCCN1CCOCC1 [Foretinib] (partner 0.25 µM),relative viability,A549; first compound 0.01 µM,1.01
same,relative viability,A549; first compound 0.03162 µM,1.03
same,relative viability,A549; first compound 0.3162 µM,1.08
same,relative viability,Calu-6; first compound 0.03162 µM,0.923
same,relative viability,Calu-6; first compound 0.3162 µM,0.867
same,relative viability,EBC-1; first compound 0.01 µM,0.103
same,relative viability,EBC-1; first compound 0.03162 µM,0.105
same,relative viability,EBC-1; first compound 0.3162 µM,0.0863
same,relative viability,IA-LM; first compound 0.01 µM,1.35
same,relative viability,IA-LM; first compound 0.03162 µM,1.17
same,relative viability,IA-LM; first compound 0.3162 µM,1.33
same,relative viability,NCI-H1299; first compound 0.01 µM,1.19
same,relative viability,NCI-H1299; first compound 0.03162 µM,1.16
same,relative viability,NCI-H1299; first compound 0.3162 µM,1.18
same,relative viability,NCI-H1623; first compound 0.01 µM,0.712
same,relative viability,NCI-H1623; first compound 0.03162 µM,0.924
same,relative viability,NCI-H1623; first compound 0.3162 µM,0.966
same,relative viability,NCI-H1703; first compound 0.01 µM,0.331
same,relative viability,NCI-H1703; first compound 0.03162 µM,0.342
same,relative viability,NCI-H1703; first compound 0.3162 µM,0.314
same,relative viability,UMC-11; first compound 0.01 µM,1.08
same,relative viability,UMC-11; first compound 0.03162 µM,1.15
same,relative viability,UMC-11; first compound 0.3162 µM,0.951
